Measured values: ChEMBL document CHEMBL5604063, “ASAP - DENV-2 NS2B-NS3 protease fluorescence dose response” (2024)
Where “and” joins values, the source holds several entries; their conditions need not be identical. Identical values can stand only once.

Assays:
[1] = molecular target: T1, Genome polyprotein (dengue virus type 2, UniProt P29990); assay type: functional, Thailand/16681/1984
[2] = molecular target: T1, Genome polyprotein; assay type: functional, Thailand/16681/1984; remark: listed apart in the source

T1 sequence (P29990 1346-1475 limits assumed): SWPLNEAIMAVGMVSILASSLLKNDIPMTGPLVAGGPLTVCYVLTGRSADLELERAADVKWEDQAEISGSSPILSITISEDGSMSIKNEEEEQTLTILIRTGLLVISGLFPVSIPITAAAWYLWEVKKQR
T1 sequence (P29990 1476-2093 limits assumed): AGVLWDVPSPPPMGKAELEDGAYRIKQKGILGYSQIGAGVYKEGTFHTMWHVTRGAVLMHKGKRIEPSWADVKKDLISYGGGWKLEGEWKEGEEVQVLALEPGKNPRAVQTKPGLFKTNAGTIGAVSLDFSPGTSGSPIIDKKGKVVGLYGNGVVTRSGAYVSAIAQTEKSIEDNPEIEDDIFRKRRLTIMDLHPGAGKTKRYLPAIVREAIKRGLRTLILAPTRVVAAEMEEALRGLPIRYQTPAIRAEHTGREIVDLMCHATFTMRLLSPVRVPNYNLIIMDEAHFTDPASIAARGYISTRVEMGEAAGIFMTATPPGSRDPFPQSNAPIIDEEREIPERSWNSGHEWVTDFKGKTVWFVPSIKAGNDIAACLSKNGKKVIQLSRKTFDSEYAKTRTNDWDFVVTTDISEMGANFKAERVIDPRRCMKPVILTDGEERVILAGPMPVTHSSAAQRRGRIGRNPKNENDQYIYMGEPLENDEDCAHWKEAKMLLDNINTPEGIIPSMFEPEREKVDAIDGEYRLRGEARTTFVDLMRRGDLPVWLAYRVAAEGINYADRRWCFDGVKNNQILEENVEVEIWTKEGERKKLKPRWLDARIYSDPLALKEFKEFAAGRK

| SMILES | IC50 [1] | IC50 [2] |
| --- | --- | --- |
| Cc1nc(C2CC2)[nH]c1C(=O)Nc1cc(CCCN)ccn1 | > 100 µM | > 99.5 µM |
| O=C1Cc2c(cccc2C(=O)Nc2cccc(Cc3nn[nH]n3)c2)N1 | > 100 µM | > 99.5 µM |
| COC(=O)c1cc(C(=O)Nc2ccc3c(c2)CNC3)cc2[nH]ccc12 | > 100 µM | > 99.5 µM |
| CO[C@]1(C(=O)Nc2ccc3c(c2)C(=O)OC3)CCCNC1 | > 100 µM | > 99.5 µM |
| N[C@@H]1CC[C@H](CCNC(=O)c2cc(Cl)cc(NC(=O)OCc3ccccc3)c2)C1 | > 100 µM | > 99.5 µM |
| Cn1cc2c(C(=O)Nc3ccc4c(c3)CNC4)cc(F)cc2n1 | > 100 µM | > 99.5 µM |
| CNC(=O)[C@]1(Nc2ccc3c(c2)CNC3)CCc2ccccc21 | > 100 µM | > 99.5 µM |
| NCc1cccc(NC(=O)[C@@H]2CCC[C@H](OC(F)(F)F)C2)c1 | > 100 µM | > 99.5 µM |
| C[C@H]1CC2(CN1C(=O)Nc1ccc3c(c1)CNC3)CC(F)(F)C2 | > 100 µM | > 99.5 µM |
| C[C@H]1C[C@H](c2cccc(CN)c2)[C@@H](c2cc(Cl)cc(NC(=O)OCc3ccccc3)c2)C1 | 77.6 µM | 55.7 µM |
| O=C(Nc1cccc(-n2nn[nH]c2=O)c1)c1cc(Cl)cc(N2CCCC2=O)c1 | > 100 µM | > 99.5 µM |
| NCc1cccc(NC(=O)c2ccnc3[nH]c(C4CCOCC4)nc23)c1 | > 100 µM | > 99.5 µM |
| O=C(Nc1ccc2c(c1)CNC2)c1nc2ccccc2s1 | 87.8 µM | > 99.5 µM |
| Cc1c(C(=O)Nc2cc(-c3cccnc3)ccn2)cc(C#N)n1C | 53.3 µM and 62.1 µM | 57.7 µM |
| Clc1cccc([C@H](C#Cc2ccccc2)Nc2ccc3c(c2)CNC3)c1 | > 100 µM | > 99.5 µM |
| NCc1cccc(NC(=O)c2cccn3cc(CN4CCCC4)nc23)c1 | > 100 µM | > 99.5 µM |
| Nc1nccc(C(=O)Nc2ccc3c(c2)CNC3)n1 | > 100 µM | > 99.5 µM |
| CC(=O)NCc1cccc(NC(=O)c2cc(Cl)cc(NC(=O)OCc3ccccc3)c2)c1 | > 100 µM | > 99.5 µM |
| O=C(Nc1cc(Cl)cc(C(=O)Nc2cc(Br)cc(-c3nnn[nH]3)c2)c1)OCc1ccccc1 | 4.76 µM and 6.21 µM | 5.85 µM |
| O=C(Nc1ccc2c(c1)CNC2)c1cc(F)cc(C2=CCOCC2)c1 | > 100 µM | > 49.7 µM |
| NCc1cccc(NC(=O)[C@@H](NC(=O)OCc2ccccc2)C2CCN(S(=O)(=O)Cc3cscn3)CC2)c1 | > 100 µM | > 99.5 µM |

| SMILES | IC50 [1] | IC50 [2] |
| --- | --- | --- |
| N#Cc1cc(Cl)cc(S(=O)(=O)Nc2cccc(-c3nnn[nH]3)c2)c1 | > 100 µM | > 99.5 µM |
| Cc1c(C(=O)Nc2cc(C(=O)N3CC[C@H](C(N)=O)C3)ccn2)cc(C2CC2)n1C | > 100 µM | > 99.5 µM |
| NC1(c2cc(C(F)(F)F)ccc2NS(=O)(=O)c2ccc(Oc3ccccc3Cl)cc2)CC1 | > 100 µM | > 99.5 µM |
| O=C(Nc1ccc2c(c1)CNC2)[C@H]1CCc2ccccc21 | > 100 µM | > 99.5 µM |
| COC(=O)[C@H]1NCc2cc(NC(=O)c3cc(F)cc4[nH]ncc34)ccc21 | > 100 µM | > 99.5 µM |
| NCc1cc(/C=C/C(=O)O)cc(NC(=O)c2cc(Cl)cc(NC(=O)OCc3ccccc3)c2)c1 | > 100 µM | 94.6 µM |
| Cc1c(C(=O)Nc2cc(C(=O)N3CCOCC3)ccn2)cc(C2CC2)n1C | > 100 µM | > 99.5 µM |
| O=C(Nc1ccc2c(c1)CNC2)c1ccc2c(Br)csc2c1 | > 100 µM | 58.6 µM |
| O=C(Nc1ccc2c(c1)CNC2)c1cccc2cn[nH]c12 | > 100 µM | > 99.5 µM and 55.6 µM |
| Cn1cc(C(=O)N2CCC([C@H](NC(=O)OCc3ccccc3)C(=O)Nc3cccc(CN)c3)CC2)cn1 | > 100 µM | > 99.5 µM |
| O=C(Nc1cc(Cl)cc(C(=O)Nc2nc([C@H]3CCCN3)cc(=O)[nH]2)c1)OCc1ccccc1 | > 100 µM | 86.9 µM |
| Cc1onc(C(=O)Nc2cccc(CN)c2)c1COc1cccc(F)c1 | > 100 µM | > 99.5 µM |
| Clc1ccc2[nH]cc(Cc3cccc(-c4nn[nH]n4)c3)c2c1 | 22.4 µM | 63.1 µM |
| Cc1c(NC(=O)c2cccc3c2CC(=O)N3)cnn1C1CCOCC1 | > 100 µM | > 99.5 µM |
| C[C@@H]1C[C@@H](C(=O)Nc2cccc(CN)c2)CCO1 | > 100 µM | > 99.5 µM |
| O=C(Nc1ccc2c(c1)CNC2)c1cc(F)cc2[nH]c(-c3ccccc3F)nc12 | 18.5 µM and 33.8 µM | 7.91 µM and 4.23 µM |
| O=C(Nc1ccc2c(c1)CCNCC2)c1cc(Cl)cc2[nH]ncc12 | > 100 µM | 47.5 µM |
| CCNC(=O)Nc1cc(Cl)cc(C(=O)Nc2ccc([C@H](CC)Cc3nnn[nH]3)cc2)c1 | > 100 µM | > 99.5 µM |
| C[C@H](NC(=O)c1cc(Cl)cc(NC(=O)OCc2ccccc2)c1)C(=O)O | > 100 µM | > 99.5 µM |
| O=C(c1cc(Cl)cc2[nH]ncc12)N1C[C@H]2CNC[C@H]2C1 | > 100 µM | > 99.5 µM |
| CCc1onc(C2CCOCC2)c1C(=O)Nc1cccc(CN)c1 | > 100 µM | > 99.5 µM |

| SMILES | IC50 [1] | IC50 [2] |
| --- | --- | --- |
| N#Cc1ccc(N2CCN(Cc3c[nH]c4ccccc34)CC2)cc1 | > 100 µM | > 99.5 µM |
| NC1CN(c2ncccc2NS(=O)(=O)c2ccc(Oc3ccccc3Cl)cc2)C1 | > 100 µM | > 99.5 µM |
| O=C(Nc1cc(Cl)cc(C(=O)N2CC[C@H](C(=O)O)C2)c1)OCc1ccccc1 | > 100 µM | > 99.5 µM |
| CCOCCCN1Cc2ccc(NC(=O)c3cc(Cl)cc4[nH]ncc34)cc2C1 | > 100 µM | > 99.5 µM |
| CNC(=O)c1cc(CN)cc([C@@H]2C[C@H]2c2cc(Cl)cc(NC(=O)OCc3ccccc3)c2)c1 | > 100 µM | 29.6 µM |
| O=C(O)C[C@H](NC(=O)OCc1ccccc1)c1ccc(OCc2ccccc2)c(Br)c1 | 45.6 µM | 59.8 µM |
| O=C(Nc1cc2c(c(C3=CC[C@H](O)CC3)c1)CNC2)c1cc(Cl)cc2[nH]ncc12 | > 100 µM | 69.5 µM |
| O=C(Nc1cc(Cl)cc(C(=O)N[C@H](c2nn[nH]n2)C2CCNCC2)c1)OCc1ccccc1 | > 100 µM | > 99.5 µM |
| O=C(O)c1nccn2ncc(Cc3c[nH]c4ccc(Cl)cc34)c12 | > 100 µM | > 99.5 µM |
| O=C(Nc1cnc2c(c1)CNCC2)c1cc(Cl)cc2[nH]ncc12 | > 100 µM | > 99.5 µM |
| CC(=O)N(c1ccc2c(c1)CNC2)[C@]1(c2cc(Cl)cc(C3CC3)c2)CCCN(C)C1=O | > 100 µM | > 99.5 µM |
| O=C(Nc1ccc2c(c1)CNC2)c1ccc2[nH]ncc2c1 | > 100 µM | > 99.5 µM |
| CCc1nccn1CC(=O)Nc1ccc2c(c1)CNC2 | > 100 µM | > 99.5 µM |
| Cc1c(C(=O)Nc2cc(C(N)=O)ccn2)cc(C2CC2)n1C | > 100 µM | > 99.5 µM |
| O=C(Nc1cc(Cl)cc(C(=O)N2CCC[C@H]2C(=O)O)c1)OCc1ccccc1 | > 100 µM | > 99.5 µM |
| NCc1cccc(CNC(=O)[C@H]2[C@H]3CCCCC[C@H]3[C@H]2NC(=O)OCc2ccccc2)c1 | 80.3 µM | 14.4 µM and 63.2 µM and 44.4 µM |
| O=C(O)COc1cc2c(cc1Cc1c[nH]c3ccc(Cl)cc13)OCO2 | 89 µM | > 99.5 µM |
| COc1c(C(N)=O)cc(Cl)cc1S(=O)(=O)Nc1cccc(-c2nnn[nH]2)c1 | > 100 µM | > 99.5 µM |
| NCc1cccc([C@H](CCCO)Nc2cc(Cl)cc(NC(=O)OCc3ccccc3)c2)c1 | > 100 µM | 85.8 µM |
| Cc1c(C(=O)Nc2cc(CCCN)ccn2)cnn1C1CC1 | > 100 µM | > 99.5 µM |
| Cn1cncc1COc1cccc([C@H](NC(=O)OCc2ccccc2)C(=O)Nc2cccc(CN)c2)c1 | > 100 µM | 66 µM |

| SMILES | IC50 [1] | IC50 [2] |
| --- | --- | --- |
| CC(C)c1cc(Br)cc(C(=O)Nc2ccc3c(c2)CNC3)c1 | > 100 µM | > 99.5 µM |
| CN(C)CCOc1ccc(Cl)cc1C(=O)Nc1cccc(CN)c1 | > 100 µM | > 99.5 µM |
| O=C(Nc1ccc2c(c1)CNC2)c1cc(Cl)cc2nn(C3CCOCC3)cc12 | > 100 µM | 90.2 µM |
| NCc1cccc([C@H]2C[C@@H]2c2cc(Cl)cc(NC(=O)OCc3ccccc3)c2)c1 | > 100 µM | 41 µM and 25.9 µM and 30 µM |
| Cn1nc(CCN)nc1NC(=O)c1cc(Cl)cc(NC(=O)OCc2ccccc2)c1 | > 100 µM | > 99.5 µM |
| CCOC(=O)N1CCC[C@H]1c1cccc(-c2ccc3[nH]c(C(=O)O)cc3c2)c1 | > 100 µM | > 99.5 µM |
| O=C(O)c1cc2cc(-c3cccc([C@H]4COCCN4)c3)ccc2[nH]1 | > 100 µM | > 99.5 µM |
| CC[C@@H](Cc1nnn[nH]1)c1ccc(NC(=O)c2cc(Cl)cc(NC(=O)OCc3ccccc3)c2)cc1 | 8.21 µM and 8.62 µM | 8.85 µM |
| COCCNC(=O)[C@H](Nc1cccc([C@H]2CCOC2)c1)c1cc(Cl)cc2[nH]ncc12 | > 100 µM | > 99.5 µM |
| Cc1c(C(=O)Nc2cc(-c3cccnc3)ccn2)cc(CC(C)(C)C)n1C | > 100 µM | > 99.5 µM |
| COc1nnc(C(F)(F)F)cc1-c1ccc2[nH]c(C(=O)O)cc2c1 | > 100 µM | > 99.5 µM |
| O=C(Nc1cc(Cl)cc([C@H](Nc2cccc(-c3nn[nH]n3)c2)C(=O)NCc2ccccc2)c1)OCc1ccccc1 | 7.11 µM and 6.42 µM | 8.05 µM |
| CC(C)c1cc(-c2ccc3[nH]c(C(=O)O)cc3c2)cc(S(N)(=O)=O)c1 | > 100 µM | > 99.5 µM |
| CN(c1ccc(Oc2ccccc2Cl)cc1)S(=O)(=O)c1cc(F)c(Cl)cc1C(=O)O | 46.5 µM | 65.4 µM |
| Cc1c(C(=O)Nc2cc(CCCN)ccn2)cc(C2CCCCC2)n1C | > 100 µM | > 99.5 µM |
| O=C(Nc1cc(Cl)cc(C(=O)NC[C@H]2C[C@@H]2C(=O)O)c1)OCc1ccccc1 | > 100 µM | > 99.5 µM |
| Cc1ccc(-n2nc(C(=O)Nc3cccc(CN)c3)ccc2=O)cc1Cl | > 100 µM | > 99.5 µM |
| Cn1nc(C2CC2)cc1C(=O)Nc1cc(-c2cccnc2)ccn1 | > 100 µM | > 99.5 µM |
| O=C1Cc2c(cccc2C(=O)Nc2ccc(Cl)c(CO)n2)N1 | > 100 µM | > 99.5 µM |
| CC[C@H](Cc1nnn[nH]1)c1ccc(NC(=O)c2cc(Cl)cc3c2CCC3)cc1 | 58.8 µM | 83.6 µM |
